In this assay the target is T1, human thymidylate synthase (TS) (Homo sapiens, UniProt P04818).
T1 construct: screening in live, non-engineered cells expressing thymidylate synthase; endogenous in cells; host or cells: K562 (human myelogenous leukemia) cells
The experiment in a line: CETSA primary screen / single-concentration retest, AlphaScreen, live K562 cells. The class given is cell-based. To be noted: for % stabilization in screen at 50 µM: K562, 2 h, read-out: % stabilization in screen; for % stabilization at retest (6h preincubation): K562 cells. The method, then:
Compounds were placed in columns 1–22. […] At the day of the experiment the plates were allowed to thaw for 30 min followed by a brief centrifugation step (1,000 × g for 1 min) prior to removal of the seal. The compounds were then diluted with 20 μl supplemented cell culture medium using a Multidrop Combi reagent dispenser (Thermo Scientific). Finally 5 μl of the diluted compounds were transferred to a 384 well hardshell PCR plate (HSR480, BIORAD) using a Bravo liquid handling platform equipped with a 384-well head (Agilent). […] The final concentration of DMSO in the assay was 0.5% in all samples.
The screen procedure started with the addition of 5 μl of a suspension of K562 cells at a density of 10 million cells per ml to all wells of a 384 well hardshell PCR plate (HSR480, BIORAD) using an electronic multichannel pipette (Biohit). […] For the time-course experiments the incubation times were altered to include also 10 min, 30 min and 6 h. […] After the incubation step the plates were transiently heated at 50 °C for 3 min followed by a controlled cooling to 20 °C for 1 min using a real-time PCR machine (LightCycler480 system, Roche). Plate handling was then as described above for the thermal aggregation experiments. The data were analyzed using microsoft excel and GraphPad Prism 6.
A calculation of the average and standard error of means for each set of controls also allowed an illustration of how these responses varied over the 32 screening plates. The Z′ factor[38] is commonly used as a measure of how well the assay separates between the controls and this was calculated as described based on the calculated averages and standard deviations of the controls on a per plate basis. For the Tagg shift and the […] experiments the data were analyzed in GraphPad Prism using the Boltzmann sigmoid equation and the saturation binding curve (rectangular hyperbola; binding isotherm) function, respectively. As already discussed[14] these methods make use of equilibrium models for data analysis although the methodology depends on the irreversible aggregation of denatured material. For this reason we refer to the observed responses as apparent and isothermal dose-response fingerprints and are careful with any quantitative interpretations, being well aware of their dependency on experimental conditions. Experiments are on-going to address the quantitative interpretation of CETSA data.
(In general: Bead proximity is the source of the signal in Alpha formats.)

[1] abbreviates: 50 μM compound, 2 h preincubation, 50 °C, 0% = DMSO, 100% = 100 nM raltitrexed.

Where two headings read alike, the source gives them in different places.

T1 sequence (P04818 2-313 limits assumed): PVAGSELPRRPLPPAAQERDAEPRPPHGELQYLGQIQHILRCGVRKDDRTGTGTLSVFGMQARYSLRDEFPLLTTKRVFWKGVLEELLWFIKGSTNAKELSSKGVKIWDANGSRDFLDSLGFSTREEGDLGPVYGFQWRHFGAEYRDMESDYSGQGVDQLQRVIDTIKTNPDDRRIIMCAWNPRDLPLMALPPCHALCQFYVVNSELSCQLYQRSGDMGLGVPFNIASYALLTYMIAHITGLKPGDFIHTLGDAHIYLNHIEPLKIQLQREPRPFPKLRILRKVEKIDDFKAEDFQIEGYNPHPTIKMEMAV

Consider `Cc1cn(C2CC(O)C(CO)O2)c(=O)[nH]c1=O` (stereo not shown) [CBK011998], for which the “% stabilization in screen” value under setting [1] was -1%.

Take `Nc1nc(N)c2nc(-c3ccccc3)c(N)nc2n1` [CBK012158, Triamterene, reference compound]: the % stabilization in screen at 50 µM stood at 78%.

On to `CC(C)NCC(O)c1ccc(NS(C)(=O)=O)cc1` (stereo not shown) [CBK012353C, Sotalol, reference compound], for which the % stabilization in screen at 50 µM worked out at 14%.

As for `Nc1ncnc2c1nc(Br)n2[C@@H]1O[C@H](CO)[C@@H](O)[C@H]1O` [CBK015742, 8-bromoadenosine], the % stabilization in screen at 50 µM was determined as 20%.

`c1cnc(N2CCN(Cc3ccc4c(c3)OCO4)CC2)nc1` [CBK041124C, Piribedil, reference compound]: the % stabilization in screen at 50 µM under setting [1] stood at 17%.

With `COc1ccccc1N1CCN(CC(O)COc2cccc3ccccc23)CC1` (stereo not shown) [CBK041301C, Naftopidil, reference compound], the % stabilization in screen at 50 µM was determined as 59%.

Turning to `Cc1ccc(-c2cc(C(F)(F)F)nn2-c2ccc(S(N)(=O)=O)cc2)cc1` [CBK041793, Celecoxib, reference compound], the % stabilization in screen at 50 µM was determined as 61%.

Turning to `C[CH2][Hg][S]c1ccccc1C(=O)[O-].[Na+]` [CBK200591N, Thimerosal, reference compound], the “% stabilization in screen” value under setting [1] came to 115%.

With `Nc1ncn([C@@H]2O[C@H](CO)[C@@H](O)[C@H]2O)c(=O)n1` [CBK200768, 5-Azacytidine, reference compound], the % stabilization in screen at 50 µM worked out at 32%.

With `Clc1ccc(C(Cn2ccnc2)OCc2csc3c(Cl)cccc23)c(Cl)c1` (stereo not shown) [CBK200917G, Sertaconazole nitrate, reference compound], the % stabilization in screen at 50 µM under setting [1] stood at 66%.

For the compound `Cc1ccc2c(c1)c1c3n2CCNC3CCC1` (stereo not shown) [CBK200931G, Pirlindole, reference compound], the % stabilization in screen at 50 µM came to 23%.

For the compound `CC(=O)OCC(=O)[C@@]12OC3(CCCC3)O[C@@H]1C[C@H]1[C@@H]3CCC4=CC(=O)C=C[C@]4(C)[C@@]3(F)[C@@H](O)C[C@@]12C` [CBK200950, Amcinonid, reference compound], under setting [1], the % stabilization in screen at 50 µM came to 56%.

In the case of `Nc1ccn([C@@H]2O[C@H](CO)[C@@H](O)C2(F)F)c(=O)n1` [CBK200978, gemcitabine, reference compound], the % stabilization in screen at 50 µM amounted to 0%.

With `CN1CCN(c2c(F)cc3c(=O)c(C(=O)O)cn(CCF)c3c2F)CC1` [CBK201030, Fleroxacin, reference compound], the % stabilization in screen at 50 µM under setting [1] was found to be 66%.

In the case of `COC1C(O)C(CO)OC1n1cc(F)c(=S)[nH]c1=O` (stereo not shown) [CBK201168], the “% stabilization at retest (6h preincubation)” value came out at 5%. The “% stabilization in screen” value under setting [1] turned out to be 2%.

Turning to `O=C(O)/C=C/c1cn([C@H]2C[C@@H](O)[C@@H](CO)O2)c(=O)[nH]c1=O` [CBK201174], under setting [1], the “% stabilization in screen” value is 17%.

Take `C#Cc1cn([C@@H]2O[C@H](CO)[C@H](O)C2O)c(=O)[nH]c1=O` (stereo partly shown) [CBK201179]: the “% stabilization in screen” value under setting [1] is reported as 20%.

Turning to `O=c1[nH]c(=O)n([C@@H]2O[C@H](CO)[C@H](O)C2O)cc1Br` (stereo partly shown) [CBK201180], the “% stabilization in screen” value under setting [1] is recorded as -1%.

`O=C(/C=C/c1cn([C@H]2C[C@@H](O)[C@@H](CO)O2)c(=O)[nH]c1=O)ON1C(=O)CCC1=O` [CBK201188]: the “% stabilization in screen” value under setting [1] was determined as 16%.

As for `O=c1ncccn1[C@@H]1O[C@H](CO)[C@H](O)C1O` (stereo partly shown) [CBK201195], under setting [1], the “% stabilization in screen” value is 22%.

For the compound `Cc1cn([C@H]2C[C@@H](O)[C@@H](CI)O2)c(=O)[nH]c1=O` [CBK201197], under setting [1], the “% stabilization in screen” value is -1%.

As to `Cc1cn(C2CC(O)C(CNC(=O)C(F)(F)F)O2)c(=O)[nH]c1=O` (stereo not shown) [CBK201200], the “% stabilization in screen” value under setting [1] came to 0%.

`O=C(/C=C/c1cn(C2CC(O)C(CO)O2)c(=O)[nH]c1=O)NCCNC(=O)C(F)(F)F` (stereo not shown) [CBK201214]: under setting [1], the “% stabilization in screen” value was found to be 9%.

With `C=CCOc1nc2c(=O)[nH]c(NC(=O)C(C)C)nc2n1[C@H]1C[C@H](O)[C@@H](CO)O1` [CBK201216, 8-allyloxy-N2-isobutyryl-2′-deoxyguanosine], the % stabilization in screen at 50 µM amounted to 30%.

As for `Nc1nc(=O)n([C@H]2C[C@@H](O)[C@@H](CO)O2)cc1I` [CBK201226], the “% stabilization in screen” value under setting [1] is 7%.

`O=C(/C=C/c1cn(C2OC(CO)C(O)C2O)c(=O)[nH]c1=O)NCCCCCCNC(=O)C(F)(F)F` (stereo not shown) [CBK201231]: the “% stabilization in screen” value under setting [1] is -1%.

On to `Cc1cn(C2CC(O)C(C3N(c4ccccc4)CCN3c3ccccc3)O2)c(=O)[nH]c1=O` (stereo not shown) [CBK201232], for which the “% stabilization in screen” value under setting [1] is -1%.

With `O=c1nc2c(cn1[C@H]1C[C@@H](O)[C@@H](CO)O1)Sc1ccccc1N2` [CBK201237], under setting [1], the “% stabilization in screen” value is 9%.

In the case of `O=c1[nH]c(=O)n([C@H]2C[C@@H](O)[C@@H](CO)O2)cc1CCO` [CBK201239], under setting [1], the “% stabilization in screen” value came out at 17%.

In the case of `O=C(NC/C=C/c1cn(C2CC(O)C(CO)O2)c(=O)[nH]c1=O)C(F)(F)F` (stereo not shown) [CBK201249], the “% stabilization in screen” value under setting [1] is listed as 17%.

Take `COC1C(O)C(CO)OC1n1cc(C)c(=O)[nH]c1=O` (stereo not shown) [CBK201251]: the “% stabilization in screen” value under setting [1] is recorded as -1%.

Turning to `COC1C(O)C(CO)OC1n1cc(F)c(=O)[nH]c1=O` (stereo not shown) [CBK201253], the “% stabilization in screen” value under setting [1] came out at 61%.

Turning to `Nc1cccc(-c2cn([C@H]3C[C@@H](O)[C@@H](CO)O3)c(=O)[nH]c2=O)c1` [CBK201262], the “% stabilization in screen” value under setting [1] came out at 16%.

As for `Cc1cn([C@@H]2O[C@H](CO)[C@H](O)C2O)c(=O)[nH]c1=O` (stereo partly shown) [CBK201265], the “% stabilization in screen” value under setting [1] is reported as 17%.

For the compound `O=C(O)/C=C/c1cn([C@@H]2O[C@H](CO)[C@H](O)C2O)c(=O)[nH]c1=O` (stereo partly shown) [CBK201270], the “% stabilization in screen” value under setting [1] was -1%.

For the compound `Nc1ccn([C@H]2C[C@@H](O)[C@@H](CO)O2)c(=O)n1` [CBK201274], the “% stabilization in screen” value under setting [1] is recorded as -1%.

As to `C#CCOc1cn([C@H]2C[C@@H](O)[C@@H](CO)O2)c(=O)[nH]c1=O` [CBK201278], the “% stabilization at retest (6h preincubation)” value worked out at 12%. Besides, the “% stabilization in screen” value under setting [1] came out at 7%.

Take `COC1C(O)C(CO)OC1n1cc(F)c(Oc2c(C)cc(C)cc2C)nc1=O` (stereo not shown) [CBK201279]: the “% stabilization in screen” value under setting [1] is given as 0%.

As to `Cc1cn2c(nc1=O)OC[C@H]1O[C@@H]2C[C@H]1O` [CBK201280], the “% stabilization in screen” value under setting [1] was 0%.

For the compound `Cn1c(=O)ccn([C@@H]2O[C@H](CO)[C@H](O)C2O)c1=O` (stereo partly shown) [CBK201281], the “% stabilization in screen” value under setting [1] is given as -1%.

In the case of `Cc1ccc(S(=O)(=O)OC[C@H]2O[C@@H](n3ccc(=O)[nH]c3=O)C[C@H]2O)cc1` [CBK201283], under setting [1], the “% stabilization in screen” value is given as -2%.

For `Cc1cc2cn([C@H]3C[C@@H](O)[C@@H](CO)O3)c(=O)nc2o1` [CBK201287], the “% stabilization in screen” value under setting [1] is 20%.

On to `O=C(NC/C=C/c1cn(C2OC(CO)C(O)C2O)c(=O)[nH]c1=O)C(F)(F)F` (stereo not shown) [CBK201298], for which the “% stabilization in screen” value under setting [1] is listed as -1%.

On to `Cc1cc2cn([C@H]3C[C@@H](O)[C@@H](CO)O3)c(=O)nc2[nH]1` [CBK201302], for which the “% stabilization in screen” value under setting [1] was found to be 21%.

As to `O=c1[nH]c(=O)n([C@@H]2O[C@H](CO)[C@H](O)C2O)cc1I` (stereo partly shown) [CBK201304], under setting [1], the “% stabilization in screen” value is given as -1%.

For the compound `Nc1nc(=O)n([C@@H]2O[C@H](CO)[C@H](O)C2O)cc1I` (stereo partly shown) [CBK201306], under setting [1], the “% stabilization in screen” value is listed as -1%.

On to `Cc1cn([C@H]2C[C@@H](O)[C@@H](CO)O2)c(=O)nc1N.Cl` [CBK201307], for which the “% stabilization in screen” value under setting [1] is given as 4%.

For the origin of these results see article PMC4820820, “CETSA screening identifies known and novel thymidylate synthase inhibitors and slow intracellular activation of 5-fluorouracil” (Nature Communications, 2016).
